Data: patent US20260258113A1, “BETA GLOBIN MIMETIC PEPTIDES AND THEIR USE” (THE UNITED STATES OF AMERICA, AS REPRESENTED BY THE …, priority 2022, published 2026)
pIC50: −log10 of the molar value. “And” between values parts separate entries of the source, which are not always exact repeats. Equal values may be shown once. “Also recorded” adds a separate entry of the source.

How the values were obtained:
human omental arteries = experiment: Isolated artery pressure myography: vasoconstriction to phenylephrine after alpha globin mimetic or control peptide, then L-NAME; assay type: cell-based; design: key to Top (Mean) / Bottom (Mean): fitted inner diameter, % of baseline; conditions: for Bottom (Mean) / Top (Mean): four parameter logistic fit of inner diameter (percentage of baseline) vs phenylephrine; for effect on vasoconstriction response to PE: omental arteries incubated with peptide, 5 μmol/L; for maximal constriction to phenylephrine (4-PL minimum): pairs of omental arteries from five donors
Method: To test this hypothesis, ex vivo pressure myography was performed on pairs of omental arteries obtained from each of five donors in response to escalating doses of the alpha adrenoreceptor agonist phenylephrine (responses fit with four parameter logistic regression best-fit values, FIGS. 6A-6B).
Isolated artery pressure myography: The pressure myography methodology utilized here for omental arteries is consistent with published protocols for assessing reactivity of mesenteric articles using a DMT pressure myograph (Shahid and Buys, JoVE J Vis Exp. 7.76:50328, 2013). Arteries […] in diameter were dissected from omental tissue on ice and transferred to the culture myograph wells (DMT-USA CM204); arterial inner diameter was measured by video microscope (DMT-USA) with digital calipers (MyoVIEW, DMT-USA).
All arteries used developed at least 20% myogenic tone after pressurization, consistent with standards for pressure myography (Shahid and Buys, JoVE J Vis Exp. 7.76:50328, 2013; Butcher et al., JoVE J Vis Exp. 28.62:3674, 2012; Jadeja et al., JoVE J Vis Exp. 6.101:e50997, 2015). Arteries were assessed for vasoconstriction response to the alpha-1-adrenoreceptor agonist phenylephrine (PE) [10^−9-10^−3] M (Sigma-Aldrich). Dose response to PE was then assessed after incubation with either the alpha globin mimetic peptide HbαX or a control peptide (5 μmol/L in KH buffer), and again following incubation with the NOS inhibitor No-Nitro-L-arginine methyl ester HCl (L-NAME, 10^−4 M)(Sigma-Aldrich).

[1] = molecular target: T1, association of alpha globin with eNOS (Mus musculus, UniProt P70313); conditions: mice; cited from earlier work
T1 construct: host or cells: mice (in vivo), endogenous proteins of resistance arteries
T1 sequence (P70313 2-1202 limits assumed): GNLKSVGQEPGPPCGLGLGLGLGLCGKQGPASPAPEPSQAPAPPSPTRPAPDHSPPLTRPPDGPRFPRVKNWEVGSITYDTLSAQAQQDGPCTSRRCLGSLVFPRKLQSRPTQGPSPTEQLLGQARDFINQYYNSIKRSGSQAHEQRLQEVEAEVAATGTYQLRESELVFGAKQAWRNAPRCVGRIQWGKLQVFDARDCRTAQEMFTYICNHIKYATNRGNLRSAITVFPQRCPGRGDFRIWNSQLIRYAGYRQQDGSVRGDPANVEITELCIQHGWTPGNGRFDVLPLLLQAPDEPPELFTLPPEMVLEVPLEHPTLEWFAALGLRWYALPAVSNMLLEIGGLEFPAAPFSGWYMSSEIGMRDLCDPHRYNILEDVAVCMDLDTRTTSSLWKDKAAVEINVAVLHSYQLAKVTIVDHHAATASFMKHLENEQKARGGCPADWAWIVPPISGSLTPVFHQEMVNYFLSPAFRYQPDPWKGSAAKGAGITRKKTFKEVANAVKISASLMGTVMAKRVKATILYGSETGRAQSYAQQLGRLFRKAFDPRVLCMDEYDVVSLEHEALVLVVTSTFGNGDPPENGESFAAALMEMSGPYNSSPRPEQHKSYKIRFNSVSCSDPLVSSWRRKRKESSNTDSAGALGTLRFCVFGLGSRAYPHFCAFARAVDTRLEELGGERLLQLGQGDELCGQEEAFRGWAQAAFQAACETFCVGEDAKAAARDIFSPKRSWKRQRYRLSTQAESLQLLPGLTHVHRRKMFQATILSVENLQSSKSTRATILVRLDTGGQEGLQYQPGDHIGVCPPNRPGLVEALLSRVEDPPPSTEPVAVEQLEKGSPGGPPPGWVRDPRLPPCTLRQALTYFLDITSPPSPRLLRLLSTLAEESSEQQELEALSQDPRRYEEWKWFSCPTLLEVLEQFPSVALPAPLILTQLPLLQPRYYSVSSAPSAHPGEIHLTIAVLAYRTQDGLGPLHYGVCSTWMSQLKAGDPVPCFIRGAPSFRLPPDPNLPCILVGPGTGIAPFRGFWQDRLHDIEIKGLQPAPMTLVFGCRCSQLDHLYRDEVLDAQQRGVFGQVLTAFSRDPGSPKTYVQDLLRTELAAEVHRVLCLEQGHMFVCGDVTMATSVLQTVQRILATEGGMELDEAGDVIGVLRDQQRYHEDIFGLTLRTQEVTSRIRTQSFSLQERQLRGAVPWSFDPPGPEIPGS

[2] = tested on: isolated human omental arteries; experiment: Isolated artery pressure myography: vasoconstriction to phenylephrine after beta globin mimetic peptides; assay type: cell-based; conditions: peptide 5 μmol/L for 45 minutes at 37° C., ex vivo
Method: Collection of omental arteries: Human omental tissue was collected from patients during clinically indicated abdominal operations at the NIH Clinical Center. All patients provided informed consent for tissue procurement on IRB-approved protocol 13-C-0176 (NCT01915225). Tissue removed by the surgeon was immediately submerged in cold 4° C. Krebs-HEPES (KH) buffer (pH 7.4) and kept on ice during dissection and artery isolation. Small arteries were dissected away from the tissue in cold Krebs-HEPES (KH) buffer (Boston BioProducts).
Identification of beta globin mimetic peptides: Tetrameric hemoglobin was docked with dimer eNOS oxygenase domain using molecular docking algorithms (HADDOCK2). […]
Isolated artery pressure myography: The pressure myography methodology utilized here for omental arteries is consistent with published protocols for assessing reactivity of mesenteric articles using a DMT pressure myograph. […] Digital video calipers were used to measure in the inner diameter of cannulated arteries (MyoVIEW, DMT-USA) at two positions, and the average of both measurements was recorded.
All arteries developed at least 20% myogenic tone after pressurization, consistent with standards for pressure myography. Arteries were assessed for vasoconstriction response to the alpha-1-adrenoreceptor agonist phenylephrine (PE, Sigma-Aldrich) at successively higher doses ranging from 10^−9 to 10^−3 molar. […]

[3] = tested on: canine resistance arteries; experiment: Pressure myography of canine arteries: phenylephrine dose escalation after Hbb-1; assay type: cell-based
Method: For these studies, omental tissue was removed from a canine laboratory animals soon after euthanasia. Mesenteric arteries 100-300 um in diameter were dissected out of the tissue and cannulated on glass pipettes. The arteries were incubated in a physiologic buffer solution (Krebs-Henseleit) at 37 degrees Celsius and pressured to 60 mm Hg. To assess vasoreactivity, escalating doses of phenylephrine were added to the incubation bath and artery diameter was measured using video microscopy with edge detection and digital calipers. The artery was incubated with 5 uM Hbb-1 peptide (including the tat cell permeability sequence) for 45 minutes. A second phenylephrine dose escalation was applied, and vasoconstriction was measured. The entire experiment was repeated with a second animal donor. In FIG. 20, artery diameter is presented as a percentage of baseline resting diameter at 60 mm Hg of pressure. The means and standard error of the mean were plotted for each condition and phenylephrine dose.

[4] = n = 5 human donors, peptide 5 μmol/L, L-NAME 10^-4 M
[5] = four parameter logistic fit, n = 5 human donors, peptide 5 μmol/L, L-NAME 10^-4 M
[6] = log of phenylephrine concentration, four parameter logistic fit, n = 5 human donors, peptide 5 μmol/L, L-NAME 10^-4 M

YGRKKRRQRRRFPYFSTKLTT [control peptide]
Bottom (Mean) (human omental arteries; [4]): 45.78 | Top (Mean) (human omental arteries; [4]): 100.40 | HillSlope (Mean) (human omental arteries; [5]): −0.623 | LogIC50 (Mean) (human omental arteries; [6]): −6.020 | effect on vasoconstriction response to PE (human omental arteries): no significant difference | maximal constriction to phenylephrine (4-PL minimum) (human omental arteries; peptide 5 μmol/L): 39.1±3.2 % of baseline diameter

YGRKKRRQRRRLSFPTTKTYF [HbαX]
Bottom (Mean) (human omental arteries; [4]): 64.59 | Top (Mean) (human omental arteries; [4]): 99.93 | HillSlope (Mean) (human omental arteries; [5]): −0.549 | disruption of NO-scavenging in human vessels (human omental arteries; human vessels): potent disruptor of NO-scavenging | LogIC50 (Mean) (human omental arteries; [6]): −5.575 | effect on vasoconstriction response to PE (human omental arteries; listed as alpha globin mimetic peptide): significantly inhibited the vasoconstriction response to PE; also recorded: diminished this constriction | maximal constriction to phenylephrine (4-PL minimum) (human omental arteries; peptide 5 μmol/L): 64.6±1.6 % of baseline diameter | alpha-1-adrenergic vasoconstriction [1]: reduced alpha-1-adrenergic vasoconstriction | angiotensin-2 induced hypertension [1]: protection against angiotensin- 2 induced hypertension | association of alpha globin with eNOS in vivo [1]: disrupt the association of alpha globin with eNOS | mean arterial blood pressure [1]: lower mean arterial blood pressure

TPEEKSAVTALWGK [Hbb-1]
effect on human arterial vasoconstriction responses to phenylephrine [2]: can inhibit vasoconstriction | effect on human arterial vasoconstriction responses to phenylephrine ([2]; listed as Hbb-Peptide-1): potent vasodilatory effects | increase of phenylephrine dose needed to achieve the same degree of vasoconstriction ([3]; 5 uM Hbb-1 peptide (including tat sequence) for 45 minutes, two animal donors): approximately 100 times | effect on phenylephrine-induced vasoconstriction in canine arteries ([3]; 5 uM Hbb-1 peptide for 45 minutes): can inhibit vasoconstriction; also recorded: shifted the vasoconstrictive response to phenylephrine to the right; also recorded: inhibits phenylephrine-induced vasoconstriction

CNC[C@H](O)c1cccc(O)c1 [Phenylephrine (PE), phenylephrine]
pIC50 (human omental arteries; Homo sapiens, log of phenylephrine concentration, four parameter logistic fit, n = 5 human donors, peptide 5 μmol/L, L-NAME 10^-4 M): 6.00 | Bottom (Mean) (human omental arteries; [4]): 46.11 and 39.08 | Top (Mean) (human omental arteries; [4]): 100.30 and 100.12 | LogIC50 (Mean) (human omental arteries; [6]): −5.891 | maximal constriction to phenylephrine (4-PL minimum) (human omental arteries; peptide 5 μmol/L): 39.1±3.2 % of baseline diameter and 46.1±5.5 % of baseline diameter

COC(=O)[C@@H](N)CCCN=C(N)N[N+](=O)[O-].Cl [L-NAME, No-Nitro-L-arginine methyl ester HCl]
effect of L-NAME on vasoconstriction to PE (human omental arteries; control peptide-treated arteries): no effect | effect of L-NAME on vasoconstriction to PE (human omental arteries; mimetic peptide-treated arteries): vasoconstriction was restored | phenylephrine-induced vasoconstriction after incubation with L-NAME (human omental arteries; mimetic peptide-treated arteries, L-NAME 10^-4 M): 41.9±2.0 % of baseline
